From patent US20220340597A1, “HEXAHYDRO-1H-PYRAZINO[1,2-A]PYRAZINE COMPOUNDS FOR THE TREATMENT OF AUTOIMMUNE DISEASE” (Hoffmann-La Roche Inc., priority 2019, published 2022)

Experiments:
human TLR8 = biological target: T1, human TLR8 (Homo sapiens, UniProt Q9NR97); assay: HEK293-Blue-hTLR-8 cells assay
T1 sequence (Q9NR97 27-1041): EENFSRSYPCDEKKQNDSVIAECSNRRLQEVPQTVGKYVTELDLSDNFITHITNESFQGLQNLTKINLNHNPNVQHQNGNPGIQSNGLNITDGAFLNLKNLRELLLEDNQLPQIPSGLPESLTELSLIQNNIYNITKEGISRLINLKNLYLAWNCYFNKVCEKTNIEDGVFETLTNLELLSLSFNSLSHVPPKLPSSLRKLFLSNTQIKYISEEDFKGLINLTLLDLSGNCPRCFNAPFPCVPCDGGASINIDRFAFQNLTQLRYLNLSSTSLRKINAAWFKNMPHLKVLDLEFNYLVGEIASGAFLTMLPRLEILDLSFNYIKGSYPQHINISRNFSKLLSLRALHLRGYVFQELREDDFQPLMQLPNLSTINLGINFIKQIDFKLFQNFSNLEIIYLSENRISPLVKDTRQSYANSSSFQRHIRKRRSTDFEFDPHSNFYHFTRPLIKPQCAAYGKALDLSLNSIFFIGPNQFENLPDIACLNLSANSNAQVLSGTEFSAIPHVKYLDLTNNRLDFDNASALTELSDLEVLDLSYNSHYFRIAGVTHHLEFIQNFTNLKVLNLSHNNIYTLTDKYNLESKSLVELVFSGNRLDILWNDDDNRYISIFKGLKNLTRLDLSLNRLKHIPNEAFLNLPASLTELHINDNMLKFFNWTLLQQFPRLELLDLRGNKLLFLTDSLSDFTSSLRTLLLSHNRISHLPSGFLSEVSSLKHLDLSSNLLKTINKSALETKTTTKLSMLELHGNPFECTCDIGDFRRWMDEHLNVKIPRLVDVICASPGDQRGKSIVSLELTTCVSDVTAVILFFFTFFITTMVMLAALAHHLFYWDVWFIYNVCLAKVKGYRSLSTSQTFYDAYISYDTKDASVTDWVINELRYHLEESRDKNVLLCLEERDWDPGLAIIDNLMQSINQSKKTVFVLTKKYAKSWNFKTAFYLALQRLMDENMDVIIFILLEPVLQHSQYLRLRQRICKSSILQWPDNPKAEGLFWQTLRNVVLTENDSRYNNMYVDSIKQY

human TLR7 = biological target: T2, human TLR7 (Homo sapiens, UniProt Q9NYK1); assay: HEK293-Blue-hTLR-7 cells assay; assay type: cell-based; settings: HEK293-Blue-hTLR7 cells, R848 stimulation, 20 hrs, SEAP reporter; read-out: HEK/hTLR7 IC50
T2 construct: host or cells: HEK293 (HEK-Blue hTLR7)
T2 sequence (Q9NYK1 27-1049): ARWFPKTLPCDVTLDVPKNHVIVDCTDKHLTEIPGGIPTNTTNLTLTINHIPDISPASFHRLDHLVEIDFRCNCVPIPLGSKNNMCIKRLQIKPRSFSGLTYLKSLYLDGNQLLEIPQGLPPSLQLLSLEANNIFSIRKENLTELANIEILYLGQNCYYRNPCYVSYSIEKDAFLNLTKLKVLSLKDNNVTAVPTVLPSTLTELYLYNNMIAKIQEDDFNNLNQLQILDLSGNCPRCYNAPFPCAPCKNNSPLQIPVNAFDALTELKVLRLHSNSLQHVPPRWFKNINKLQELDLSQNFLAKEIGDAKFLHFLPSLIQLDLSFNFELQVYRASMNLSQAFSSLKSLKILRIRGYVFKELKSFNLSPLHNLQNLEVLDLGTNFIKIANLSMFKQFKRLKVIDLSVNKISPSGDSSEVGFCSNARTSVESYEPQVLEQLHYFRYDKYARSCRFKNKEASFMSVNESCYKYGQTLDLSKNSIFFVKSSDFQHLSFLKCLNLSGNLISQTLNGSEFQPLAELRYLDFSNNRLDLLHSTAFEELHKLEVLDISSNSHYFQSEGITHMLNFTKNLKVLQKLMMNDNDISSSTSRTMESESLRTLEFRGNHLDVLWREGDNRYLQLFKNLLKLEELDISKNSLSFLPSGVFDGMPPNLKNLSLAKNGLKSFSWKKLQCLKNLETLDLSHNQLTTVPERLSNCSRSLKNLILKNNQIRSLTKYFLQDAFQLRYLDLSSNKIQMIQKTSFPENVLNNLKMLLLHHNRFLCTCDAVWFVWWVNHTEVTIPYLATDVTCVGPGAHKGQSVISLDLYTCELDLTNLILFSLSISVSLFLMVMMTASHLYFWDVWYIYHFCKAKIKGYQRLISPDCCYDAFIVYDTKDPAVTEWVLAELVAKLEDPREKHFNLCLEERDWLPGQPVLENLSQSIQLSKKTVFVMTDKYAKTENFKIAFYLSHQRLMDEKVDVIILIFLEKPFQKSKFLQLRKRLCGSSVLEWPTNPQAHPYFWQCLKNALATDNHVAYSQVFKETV

Compound: [2H]c1ccc2c(N3C[C@@H]4CN(Cc5ccc6c(c5)CNCC6)CCN4[C@H](C)C3)ccc(C#N)c2n1 [Example 61, 5-[(4R,9aS)-4-methyl-8-(1,2,3,4-tetrahydroisoquinolin-7-ylmethyl)-3,4,6,7,9,9a-hexahydro-1H-pyrazino[1,2-a]pyrazin-2-yl]-2-deuterio-quinoline-8-carbonitrile]
- IC50 (human TLR8): 8 nM
- IC50 (human TLR7): 16 nM

Compound: [2H]c1ccc2c(N3C[C@@H]4CN(CCc5ccc(N6C[C@@H](N)[C@H](OC)C6)nc5)CCN4[C@H](C)C3)ccc(C#N)c2n1 [Example 62, 5-[(4R,9aS)-8-[2-[6-[(3R,4R)-3-amino-4-methoxy-pyrrolidin-1-yl]-3-pyridyl]ethyl]-4-methyl-3,4,6,7,9,9a-hexahydro-1H-pyrazino[1,2-a]pyrazin-2-yl]-2-deuterio-quinoline-8-carbonitrile]
- IC50 (human TLR8): 17 nM
- IC50 (human TLR7): 23 nM

Compound: [2H]c1ccc2c(N3C[C@@H]4CN(CCc5ccc(N6CC7(CN(C)C7)C6)nc5)CCN4[C@H](C)C3)ccc(C#N)c2n1 [Example 64, 5-[(4R,9aS)-4-methyl-8-[2-[6-(6-methyl-2,6-diazaspiro[3.3]heptan-2-yl)-3-pyridyl]ethyl]-3,4,6,7,9,9a-hexahydro-1H-pyrazino[1,2-a]pyrazin-2-yl]-2-deuterio-quinoline-8-carbonitrile]
- IC50 (human TLR8): 32 nM
- IC50 (human TLR7): 23 nM

Compound: C[C@@H]1CN(c2ccc(C#N)c3ncccc23)C[C@@H]2CN(CCc3ccc(N4CC(C)(N)C4)nc3)CCN21 [Example 65, 5-[(4R,9aS)-8-[2-[6-(3-amino-3-methyl-azetidin-1-yl)-3-pyridyl]ethyl]-4-methyl-3,4,6,7,9,9a-hexahydro-1H-pyrazino[1,2-a]pyrazin-2-yl]quinoline-8-carbonitrile]
- IC50 (human TLR8): 28 nM
- IC50 (human TLR7): 19 nM

Compound: CO[C@@H]1CN(c2ccc(CCN3CCN4[C@@H](C3)CN(c3ccc(C#N)n5ncc(F)c35)C[C@H]4C)cc2)C[C@H]1N [Example 66, 4-[(4R,9aS)-8-[2-[4-[(3R,4R)-3-amino-4-methoxy-pyrrolidin-1-yl]phenyl]ethyl]-4-methyl-3,4,6,7,9,9a-hexahydro-1H-pyrazino[1,2-a]pyrazin-2-yl]-3-fluoro-pyrazolo[1,5-a]pyridine-7-carbonitrile]
- IC50 (human TLR8): 39 nM
- IC50 (human TLR7): 62 nM

Compound: CO[C@@H]1CN(c2ccc(CCN3CCN4[C@@H](C3)CN(c3ccc(C#N)n5ncc(F)c35)C[C@H]4C)cn2)C[C@H]1N [Example 67, 4-[(4R,9aS)-8-[2-[6-[(3R,4R)-3-amino-4-methoxy-pyrrolidin-1-yl]-3-pyridyl]ethyl]-4-methyl-3,4,6,7,9,9a-hexahydro-1H-pyrazino[1,2-a]pyrazin-2-yl]-3-fluoro-pyrazolo[1,5-a]pyridine-7-carbonitrile]
- IC50 (human TLR8): 84 nM
- IC50 (human TLR7): 65 nM

Compound: CO[C@@H]1CN(c2ccc(CCN3CCN4[C@@H](C3)CN(c3ccc(C#N)n5nccc35)C[C@H]4C)cc2)C[C@H]1N [Example 68, 4-[(4R,9aS)-8-[2-[4-[(3R,4R)-3-amino-4-methoxy-pyrrolidin-1-yl]phenyl]ethyl]-4-methyl-3,4,6,7,9,9a-hexahydro-1H-pyrazino[1,2-a]pyrazin-2-yl]pyrazolo[1,5-a]pyridine-7-carbonitrile]
- IC50 (human TLR8): 77 nM
- IC50 (human TLR7): 53 nM

Compound: C[C@@H]1CN(c2ccc(C#N)n3ncc(F)c23)C[C@@H]2CN(Cc3ccc4c(c3)CNCC4)CCN21 [Example 69, 4-[(4R,9aS)-4-methyl-8-(1,2,3,4-tetrahydroisoquinolin-7-ylmethyl)-3,4,6,7,9,9a-hexahydro-1H-pyrazino[1,2-a]pyrazin-2-yl]-3-fluoro-pyrazolo[1,5-a]pyridine-7-carbonitrile]
- IC50 (human TLR8): 52 nM
- IC50 (human TLR7): 66 nM

Compound: C[C@@H]1CN(c2ccc(C#N)c3ncccc23)C[C@@H]2CN(Cc3cccc4c3CCNC4)CCN21 [Example 70, 5-[(4R,9aS)-4-methyl-8-(1,2,3,4-tetrahydroisoquinolin-5-ylmethyl)-3,4,6,7,9,9a-hexahydro-1H-pyrazino[1,2-a]pyrazin-2-yl]quinoline-8-carbonitrile]
- IC50 (human TLR8): 12 nM
- IC50 (human TLR7): 11 nM

Compound: C[C@@H]1CN(c2ccc(C#N)c3ncccc23)C[C@@H]2CN(Cc3cccc4c3CNCC4)CCN21 [Example 71, 5-[(4R,9aS)-4-methyl-8-(1,2,3,4-tetrahydroisoquinolin-8-ylmethyl)-3,4,6,7,9,9a-hexahydro-1H-pyrazino[1,2-a]pyrazin-2-yl]quinoline-8-carbonitrile]
- IC50 (human TLR8): 21 nM
- IC50 (human TLR7): 45 nM

Compound: C[C@@H]1CN(c2ccc(C#N)c3ncccc23)C[C@@H]2CN(Cc3cccc4c3CNC4)CCN21 [Example 72, 5-[(4R,9aS)-8-(isoindolin-4-ylmethyl)-4-methyl-3,4,6,7,9,9a-hexahydro-1H-pyrazino[1,2-a]pyrazin-2-yl]quinoline-8-carbonitrile]
- IC50 (human TLR8): 15 nM
- IC50 (human TLR7): 12 nM

Compound: Cc1cc(N2CCN3[C@@H](C2)CN(c2ccc(C#N)c4ncccc24)C[C@H]3C)cc(N2CC(C)(N)C2)n1 [Example 73, 5-[(4R,9aS)-8-[2-(3-amino-3-methyl-azetidin-1-yl)-6-methyl-4-pyridyl]-4-methyl-3,4,6,7,9,9a-hexahydro-1H-pyrazino[1,2-a]pyrazin-2-yl]quinoline-8-carbonitrile]
- IC50 (human TLR8): 18 nM
- IC50 (human TLR7): 25 nM

Compound: C[C@@H]1CN(c2ccc(C#N)n3ncc(F)c23)C[C@@H]2CN(CCc3ccc(N4CC(C)(N)C4)nc3)CCN21 [Example 74, 4-[(4R,9aS)-8-[2-[6-(3-amino-3-methyl-azetidin-1-yl)-3-pyridyl]ethyl]-4-methyl-3,4,6,7,9,9a-hexahydro-1H-pyrazino[1,2-a]pyrazin-2-yl]-3-fluoro-pyrazolo[1,5-a]pyridine-7-carbonitrile]
- IC50 (human TLR8): 62 nM
- IC50 (human TLR7): 28 nM

Compound: C[C@@H]1CN(c2ccc(C#N)n3ncc(F)c23)C[C@@H]2CN(CCc3ccc(N4C[C@@H](N)[C@@H](F)C4)nc3)CCN21 [Example 75, 4-[(4R,9aS)-8-[2-[6-[(3R,4S)-3-amino-4-fluoro-pyrrolidin-1-yl]-3-pyridyl]ethyl]-4-methyl-3,4,6,7,9,9a-hexahydro-1H-pyrazino[1,2-a]pyrazin-2-yl]-3-fluoro-pyrazolo[1,5-a]pyridine-7-carbonitrile]
- IC50 (human TLR8): 84 nM
- IC50 (human TLR7): 34 nM

Compound: Cc1nc(N2CC(C)(N)C2)ccc1CN1CCN2[C@@H](C1)CN(c1ccc(C#N)c3ncccc13)C[C@H]2C [Example 76, 5-[(4R,9aS)-8-[[6-(3-amino-3-methyl-azetidin-1-yl)-2-methyl-3-pyridyl]methyl]-4-methyl-3,4,6,7,9,9a-hexahydro-1H-pyrazino[1,2-a]pyrazin-2-yl]quinoline-8-carbonitrile]
- IC50 (human TLR8): 5 nM
- IC50 (human TLR7): 16 nM
